Experiments:
[1] = test system: hMSCs in fused spheroids
Experimental: The hMSCs were labeled with CellTracker Green. The hybrid (iNPC-iEC-MSC) spheroids were cultured in neural differentiation media (control) or media containing the CXCR4 inhibitor AMD3100 (100 nM, Sigma) for additional 10 days [53]. The fusion kinetics and cell localization were captured over time.

[2] = test system: hybrid spheroids; assay: MTT assay of hybrid spheroids; type: cell-based, human
Experimental: First, an MTT assay was conducted. The spheroids of Examples 2 and 3 were incubated with 5 mg/mL 3-(4,5-Dimethylthiazol-2-yl)-2,5-diphenyltetrazolium bromide (MTT, Sigma) solution at day 7 after three cell types were co-cultured unless otherwise noted. The absorbance of the samples was measured at 500 nm using a microplate reader (Biorad, Richmond, Calif.).
The hMSCs were labeled with CellTracker Green.

[3] = test system: iNPC-iEC-MSC spheroids; assay: Spheroid fusion / aggregation kinetics (squared aspect ratio); type: cell-based, human
Experimental: To form hHA hydrogels, 1% (w/v) HA from Sigma Aldrich solution was reacted with a 5-fold molar excess amount of methacrylic anhydride (MA) from Sigma Aldrich for 15 h in the dark at 4° C. The final product was collected by precipitating the solution in 5-fold volume of ethanol twice, and was then purified by dialysis using a membrane (3.5 kDa Mw cut-off, Thermofisher) to remove unreacted reagents. The purified MA-HA was filtered, lyophilized, and stored at −20° C. until further use. Next, ^1H-NMR spectroscopy (a Bruker 500M spectrometer at […]) was used to analyze and the degree of methacrylation. For culture experiments, day 14 iEC spheroids were transferred to the wells containing day 14 iNPC spheroids, at the same time hMSCs were added into the wells at different ratios (iNPC:iEC:MSC=4:2:0, 3:2:1 2:2:2, and 1:2:3). […] The morphology of hybrid spheroids were captured over 7 days by a phase contrast microscope.
Images of spheroid fusion were captured over time by a phase contrast microscope. The captured images were converted to binary images using ImageJ software (rsb.info.nih.gov/ij) and analyzed with the “particle analysis tool”. Through particle analysis, the squared aspect ratio of contact length between the two aggregates over maximum diameter (FIG. 6A) was determined to indicate the aggregate fusion process. The inter-sphere angle was measured as the intersecting angle between the tangent lines of two contacted spheroids to the touch point. For some experiments, the number of branching points and the total tube length in the area were evaluated.

[4] = test system: hybrid spheroids; assay: Neurite outgrowth of replated hybrid spheroids; type: cell-based, human; conditions: ROCKi Y27632 10 μM, day 21 spheroids replated three days
Experimental: Effects of ROCKi Y27632, Geltrex, and HA on neurogenesis of hybrid spheroids were depicted (not shown). Day 21 hybrid spheroids embedded in Geltrex (5%) or treated with ROCKi Y27632 (10 μM) were replated on 1% Geltrex-coated surface for three days. Neurite and axonal extension indicated by β-tubulin III expression was shown. Phase contrast images of axon outgrowth of day 21 spheroids were produced (not shown). Fluorescent images for day 39 spheroids: neuron marker β-tubulin III, motor neuron progenitor marker Islet-1, GABAergic neuron marker (GABA), glutamatergic neuron marker (Glutamate), cortical neuron marker (TBR1), pre-synaptic marker synapsin I and post-synaptic marker PSD95 were produced (not shown).

Row | Compound | area occupied by hMSCs ([1]; AMD3100 100 nM vs control groups) | aspect ratio of hMSCs (area occupied by hMSCs to total area of fused spheroids) ([1]; AMD3100 100 nM, day 4 to day 8) | MTT activity (cell proliferation) ([2]; AMD3100 100 nM, day 24 hybrid spheroids) | aspect ratio ([3]; 20 μM or 40 μM ROCKi, plateau over 7 days) | tendency of two spheroids to fuse ([3]; high concentration (20 μM or 40 μM)) | integration of MSCs into iNPC-iEC spheroids ([3]; low concentration of ROCKi (10 μM)) | MTT activity ([2]; 20 μM ROCKi Y27632, 7 days of tri-culture, vs no treatment) | neurite outgrowth [4]
1 | c1cc(CN2CCCNCCNCCCNCC2)ccc1CN1CCCNCCNCCCNCC1 [AMD3100] | smaller than the control groups | decreased from day 4 to day 8 | little influence on cell proliferation |  |  |  |  | 
2 | C[C@@H](N)[C@H]1CC[C@H](C(=O)Nc2ccncc2)CC1 [Y27632] |  |  |  | 0.5-0.7 | disrupted | did not impact | increased MTT activity | enhanced

— US11613729B2, “Cortical spheroids and methods of making the same” (The Florida State University Research Foundation, Inc., priority 2019, dated 2023)
